Ki data for 9 molecules are collected here from BindingDB's records for PubMed 34838650 (University of Messina, 2022).

The nature of test [1]: Inhibition of chymotrypsin-like activity of human 20s immuno proteasome beta5i subunit assessed as substrate hydrolysis using Suc-Leu-Leu-Val-Tyr-AMC as flurogenic substrate at 0.004 mg/ml measured for 10 mins by fluorescence assay.
Test [2] in a line: Inhibition of 20S constitutive proteosome beta2c subunit (unknown origin) assessed as substrate hydrolysis using Boc-Leu-Arg-Arg-AMC as fluorogenic substrate at 100 uM.
Test [3] addresses Proteasome subunit beta type-10 (PSMB10). Description: Inhibition of 20S immuno proteosome beta2i subunit (unknown origin) assessed as substrate hydrolysis using Boc-Leu-Arg-Arg-AMC as fluorogenic substrate at 100 uM.
The nature of test [4]: Inhibition of 20S constitutive proteosome beta1c subunit (unknown origin) assessed as substrate hydrolysis using Z-Leu-Leu-Glu-AMC as fluorogenic substrate at 100 uM.
The target of test [5] is Proteasome subunit beta type-9 (PSMB9). Description: Inhibition of 20S immuno proteosome beta1i subunit (unknown origin) assessed as substrate hydrolysis using Z-Leu-Leu-Glu-AMC as fluorogenic substrate at 100 uM.
For test [6] the target is unchanged. Nature of the test: Inhibition of human spleen 20S immuno proteosome beta1i subunit assessed as substrate hydrolysis using Ac-Pro-Ala-Leu-AMC as fluorogenic substrate by fluorescence based assay.

Turning to `CC(C)CCNC(=O)Cn1ccc2ccc(Br)cc2c1=O`, the inhibition constant (Ki) in test [1] turned out to be 4.39 µM.
On to `COc1cc2ccn(C/C=C/C(=O)Nc3ccccc3)c(=O)c2cc1OC`, for which the inhibition constant (Ki) in test [2] amounted to 15 µM; in test [3] it was 12 µM; in test [4] it was 17 µM; in test [5], 10 µM.
In the case of `COc1cc2ccn(C/C=C/C(=O)NCc3ccccc3)c(=O)c2cc1OC`, the inhibition constant Ki is 9 µM in test [2], 23 µM in test [4] and 3 µM in test [5].
In the case of `COc1cc2ccn(C/C=C/C(=O)NCCc3ccccc3)c(=O)c2cc1OC`, the Ki in test [2] was determined as 10 µM; in test [3], 4 µM; in test [5], 14 µM.
The corresponding values for `COc1cc2ccn(C/C=C/C(=O)NCCCc3ccccc3)c(=O)c2cc1OC` are 5 µM, 3 µM and 50 µM.
With `CCCCNC(=O)/C=C/Cn1ccc2cc(OC)c(OC)cc2c1=O`, the Ki amounted to 10 µM in test [2] and 42 µM in test [3].
As to `COc1cc2ccn(C/C=C/C(=O)NCCC(C)C)c(=O)c2cc1OC`, the inhibitory constant (Ki) in test [2] came out at 4 µM; in test [3], 20 µM; in test [5] it was 0.27 µM.
As for `COc1cc2ccn(C/C=C/C(=O)NC3CCCCC3)c(=O)c2cc1OC`, the inhibition constant Ki in test [3] came out at 42 µM.
For the molecule `O=C(CCn1ccccc1=O)NCc1ccccc1`, the Ki in test [6] was determined as 0.021 µM.

A word on the Ki: it is a dissociation constant, usually derived from enzyme kinetics or from competition with a known ligand.
